Laboratory results published in patent US20130005762A1, “COMBINATION OF DROLOXIFENE AND CLOPIDOGREL” (TCP Innovations Limited, priority 2009, published 2013).
“Also recorded” adds a separate entry of the source. Counter-ions that a name gives are not always drawn.

Tests used:
[1] = Effect of co-administered triphenylethylenes on clopidogrel metabolism in vivo (CLP*-acetamide by LC-MS); set-up: species or system Sprague-Dawley rats; conditions: oral gavage; for effect on clopidogrel metabolism (in words): 0.1 to 10 mg/kg with 10 mg/kg clopidogrel
Description: Adult male Sprague-Dawley rats are dosed with various triphenylethylenes at different doses from 0.1 mg/kg to 10 mg/kg (spanning the likely doses such compounds would be used in man), or with vehicle only, and simultaneously dosed with 10 mg/kg clopidogrel, both by oral gavage. Blood samples are drawn through an in-dwelling jugular catheter at 0.5, 1, 2, 4, 8 and 24 hrs post-dose, and serum is prepared by conventional methods well known in the art.
The level of CLP*, the active metabolite of clopidogrel is then determined in each blood sample by LC-MS by collecting the blood samples in tubes containing the thiol alkylating agent iodeoacetamide. Iodoacetamide reacts with CLP* to generate a stable product which can be detected by LC-MS using standard methodology well known in the art. An authentic sample of the acetamide adduct of CLP* is used to quantify the level of CLP*-acetamide in the sample. […] The concentration of CLP*-acetamide adduct can therefore be assumed to be proportional to the concentration of CLP*. The pharmacokinetics of CLP*-acetamide are then compared under the different conditions, using standard pharmacokinetics models implemented with WinNonLin.

[2] = test system: rat aortic smooth muscle cells; assay: TGF-beta Production Stimulator functional assay: suppression of smooth muscle cell proliferation reversible by neutralising anti-TGF-beta1 antibody; assay type: cell-based, Wistar rat; conditions: compared side-by-side with Tamoxifen
Text: In order compare Droloxifene with other triphenylethylenes, we have exploited a functional assay for TGF-beta1 activity. Alternative approaches are less suitable for various reasons: it is not possible to directly measure TGF-beta protein production by cultured cells in response to triphenylethylenes because the TGF-beta that is produced remains associated with the cells or the extracellular matrix and is therefore not available for assay (for example, by ELISA) in the conditioned medium from the cultured cells. […] The specificity of such an assay is achieved by comparing the rate of proliferation of the smooth muscle cells in the presence or absence of a validated, highly specific neutralising antibody against TGF-beta (or TGF-beta1, as required).
The cells were prepared by enzyme dispersion of isolated rat aortae exactly as described previously (Grainger et al (1993) Biochem. J. 294(1):109-12 and the references therein). The cells were cultured (37° C.; 5% CO2) in DMEM+10% foetal calf serum (FCS), and subcultured every 4 days at 1:2 dilution, using 0.02% trypsin/EDTA (Gibco). Experiments were performed between the sixth and twentieth subculture.
For the experiments, the cells were subcultured into 12-well cluster plates, and allowed to grow for 24 hrs. […] The cells were then incubated for 72 hrs. All treatment conditions were established in triplicate. One triplicate of cells was counted (see below) at Oh. All other wells were counted at 72 hrs.
The number of cells in each well was determined as follows: the well was washed three times with serum-free DMEM, aspirated and then incubated with 100 μl of trypsin/EDTA solution (Gibco) for 2 minutes at 37° C. Complete release of the cell monolayer was confirmed microscopically. The cell density in portion of this suspension was determined by counting using an Improved Neubauer hameocytometer, ensuring the suspension was uniform by gentle pipetting, prior to sampling. The cell density was converted to the absolute number of cells present in the well by multiplying the number of cells per μl by the total volume of suspension (100 μl). For each condition, the mean number of cells at the end of the experiment was calculated by meaning the number of cells in each well of triplicate.
The extent of proliferation of the cell culture under each condition was determined by subtracting the mean number of cells at time Oh from the mean number of cells under that condition at time 72 h. The amount of TGF-beta1 activity under each condition was determined by subtracting the inhibition of growth achieved in the presence of neutralising anti-TGF-beta1 antibody (AB-101-NA; R&D Systems) from the inhibition of growth achieved in the absence of antibody.

[3] = Meta-analysis of cardiovascular outcomes of women treated with Tamoxifen (Braithwaite et al.); assay type: in vivo; conditions: translated from the relative risk
Text: This translates to a 33% reduction in risk, which, if replicated among higher risk groups such as men, would result in at least 10,000 fewer deaths due to myocardial infarction in the UK alone each year, and five times that number in the US.

[4] = analog 0.1 mg/kg with 10 mg/kg clopidogrel
[5] = analog 1 mg/kg with 10 mg/kg clopidogrel
[6] = analog 10 mg/kg with 10 mg/kg clopidogrel

In the case of `CC/C(=C(\c1ccc(I)cc1)c1ccc(OCCN2CCCC2)cc1)c1ccccc1` [Idoxifene], the “% inhibition of CLP*-acetamide Cmax compared to vehicle control” value (“% inhibition of CLP*-acetamide Cmax” below) [1, 4] is reported as 2%, the “% inhibition of CLP*-acetamide Cmax” value [1, 5] is reported as 6% and the “% inhibition of CLP*-acetamide Cmax” value [1, 6] is reported as 48%.
With `O=C(c1ccc(OCCN2CCCCC2)cc1)c1c(-c2ccc(O)cc2)sc2cc(O)ccc12` [Raloxifene] the “TGF-beta Production Stimulator activity (in words)” value [2] was “does not have measurable activity”, the “TGF-beta Production Stimulator activity (in words)” value ([2]; listed as raloxifene) was “substantially less active; also recorded: does not stimulate the production of TGF-beta1” and the “% inhibition of CLP*-acetamide Cmax” value [1, 4] was −18%. The “% inhibition of CLP*-acetamide Cmax” value [1, 5] was 11%.
With `CC/C(=C(\c1ccccc1)c1ccc(OCCN(C)C)cc1)c1ccccc1` [Tamoxifen] the “reduction in risk of death from myocardial infarction” value [3] was 33%.
With `CC/C(=C(/c1ccc(OCCN(C)C)cc1)c1cccc(O)c1)c1ccccc1` [Droloxifene, (E)-1-(4′-(2-dimethylaminoethoxy)phenyl)-1-(3-hydroxyphenyl)-2-phenylbut-1-ene] the “TGF-beta Production Stimulator activity (in words)” value [2] was “comparable activity”, the “effect on clopidogrel metabolism (in words)” value [1] was “no effect on clopidogrel metabolism” and the “effect on clopidogrel metabolism (in words)” value ([1]; listed as droloxifene) was “no effect on the pharmacokinetics of clopidogrel”. For the same compound, the “% inhibition of CLP*-acetamide Cmax” value [1, 4] was 0%, the “% inhibition of CLP*-acetamide Cmax” value [1, 5] was −19% and the “% inhibition of CLP*-acetamide Cmax” value [1, 6] was −7%.
With `CC/C(=C(\c1ccccc1)c1ccc(OCCN(C)C)cc1)c1ccccc1` [tamoxifen citrate] the “TGF-beta Production Stimulator activity (in words)” value [2] was “no difference”.
